Several values for one entry are separate records, joined by “and”; a condition that tells them apart may be missing. Equal values may be shown once. Read-outs that look alike come from different tables or passages of the source.
Legend:
[1] = molecular target: T1, 382 unique human kinases (Homo sapiens, UniProt Q00534); assay: biochemical; format: biochemical; details: CDK6/cyclin D3, 10 uM
T1 construct: purchased Reaction Biology (HotSpot contract assay)

[2] = test system: 382 unique human kinases; assay: biochemical; format: biochemical
[3] = molecular target: T2, 382 unique human kinases (Homo sapiens, UniProt P24941); assay: biochemical; format: biochemical; details: 10 uM; for remaining activity at 10 µM: read-out: % Enzyme Activity (relative to DMSO controls)
T2 construct: purchased Reaction Biology (HotSpot contract assay)

[4] = molecular target: T3, 382 unique human kinases (Homo sapiens, UniProt P50750); assay: biochemical; format: biochemical; details: CDK9/cyclin T1, 10 uM
T3 construct: purchased Reaction Biology (HotSpot contract assay)

[5] = molecular target: T4, 382 unique human kinases (Homo sapiens, UniProt P11802); assay: biochemical; format: biochemical; details: CDK4/cyclin D3, [ATP] 5 µM, compound 10 uM
T4 construct: purchased Reaction Biology (HotSpot contract assay)

[6] = molecular target: T5, FGR (Homo sapiens, UniProt P09769); assay: HotSpot in vitro kinase radiometric assay; format: biochemical; details: read-out: % inhibition at 10 uM: FGR; 10 μM; Fig 6C median ± standard deviation (n = 2)
T5 construct: purchased Reaction Biology (HotSpot contract assay)

[7] = molecular target: T6, PEAK1 (Homo sapiens, UniProt Q9H792); assay: HotSpot in vitro kinase radiometric assay; format: biochemical; details: Fig 6C median ± standard deviation (n = 2)
T6 construct: purchased Reaction Biology (HotSpot contract assay)
T6 sequence (Q9H792 whole entry): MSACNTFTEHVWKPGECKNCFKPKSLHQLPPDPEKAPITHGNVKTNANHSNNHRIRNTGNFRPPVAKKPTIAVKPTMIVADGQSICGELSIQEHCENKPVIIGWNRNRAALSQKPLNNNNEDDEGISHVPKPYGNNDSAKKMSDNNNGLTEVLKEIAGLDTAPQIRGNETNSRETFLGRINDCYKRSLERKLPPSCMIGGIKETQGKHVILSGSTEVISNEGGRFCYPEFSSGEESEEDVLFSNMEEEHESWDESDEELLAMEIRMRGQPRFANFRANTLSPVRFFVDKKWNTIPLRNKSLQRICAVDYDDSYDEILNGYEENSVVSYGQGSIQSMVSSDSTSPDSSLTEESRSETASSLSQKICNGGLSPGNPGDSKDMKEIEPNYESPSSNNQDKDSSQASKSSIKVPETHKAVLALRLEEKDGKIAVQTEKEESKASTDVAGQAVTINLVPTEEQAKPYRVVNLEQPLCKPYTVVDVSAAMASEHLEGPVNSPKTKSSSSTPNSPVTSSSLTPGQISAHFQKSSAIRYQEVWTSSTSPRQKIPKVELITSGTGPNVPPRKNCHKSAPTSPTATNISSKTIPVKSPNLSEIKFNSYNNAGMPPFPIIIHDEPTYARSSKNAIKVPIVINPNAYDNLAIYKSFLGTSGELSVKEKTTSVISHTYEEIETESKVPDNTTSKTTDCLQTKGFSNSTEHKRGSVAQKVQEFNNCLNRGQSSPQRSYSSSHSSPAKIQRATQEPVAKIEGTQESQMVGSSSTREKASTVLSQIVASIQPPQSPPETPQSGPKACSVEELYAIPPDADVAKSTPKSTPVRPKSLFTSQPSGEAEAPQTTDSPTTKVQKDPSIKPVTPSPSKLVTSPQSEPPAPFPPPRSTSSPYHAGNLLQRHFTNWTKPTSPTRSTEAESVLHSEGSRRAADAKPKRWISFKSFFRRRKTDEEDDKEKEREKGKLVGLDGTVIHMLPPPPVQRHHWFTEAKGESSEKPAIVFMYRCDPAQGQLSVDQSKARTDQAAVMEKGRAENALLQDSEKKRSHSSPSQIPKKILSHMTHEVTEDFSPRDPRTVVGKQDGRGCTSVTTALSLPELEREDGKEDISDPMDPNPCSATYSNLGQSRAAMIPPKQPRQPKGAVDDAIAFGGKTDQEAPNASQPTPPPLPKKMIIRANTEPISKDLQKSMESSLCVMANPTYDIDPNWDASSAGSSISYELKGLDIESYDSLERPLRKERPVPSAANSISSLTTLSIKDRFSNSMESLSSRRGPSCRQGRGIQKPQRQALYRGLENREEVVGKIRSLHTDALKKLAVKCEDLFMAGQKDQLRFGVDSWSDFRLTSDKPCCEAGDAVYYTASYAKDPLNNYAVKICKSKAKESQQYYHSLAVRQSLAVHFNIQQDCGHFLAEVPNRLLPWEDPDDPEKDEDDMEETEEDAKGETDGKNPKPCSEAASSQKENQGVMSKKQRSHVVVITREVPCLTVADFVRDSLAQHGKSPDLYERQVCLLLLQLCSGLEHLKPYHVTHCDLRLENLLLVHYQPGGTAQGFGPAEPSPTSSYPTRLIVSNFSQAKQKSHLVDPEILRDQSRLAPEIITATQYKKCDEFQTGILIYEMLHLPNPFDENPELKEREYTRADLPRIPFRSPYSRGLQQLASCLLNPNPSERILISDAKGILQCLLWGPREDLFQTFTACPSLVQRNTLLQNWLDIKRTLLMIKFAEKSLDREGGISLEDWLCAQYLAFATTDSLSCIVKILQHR

[8] = molecular target: ABL1 (Homo sapiens, UniProt P00519); assay: HotSpot in vitro kinase radiometric assay; format: biochemical; parameters: purchased Reaction Biology (HotSpot contract assay)
Chain of ABL1 (P00519 whole entry): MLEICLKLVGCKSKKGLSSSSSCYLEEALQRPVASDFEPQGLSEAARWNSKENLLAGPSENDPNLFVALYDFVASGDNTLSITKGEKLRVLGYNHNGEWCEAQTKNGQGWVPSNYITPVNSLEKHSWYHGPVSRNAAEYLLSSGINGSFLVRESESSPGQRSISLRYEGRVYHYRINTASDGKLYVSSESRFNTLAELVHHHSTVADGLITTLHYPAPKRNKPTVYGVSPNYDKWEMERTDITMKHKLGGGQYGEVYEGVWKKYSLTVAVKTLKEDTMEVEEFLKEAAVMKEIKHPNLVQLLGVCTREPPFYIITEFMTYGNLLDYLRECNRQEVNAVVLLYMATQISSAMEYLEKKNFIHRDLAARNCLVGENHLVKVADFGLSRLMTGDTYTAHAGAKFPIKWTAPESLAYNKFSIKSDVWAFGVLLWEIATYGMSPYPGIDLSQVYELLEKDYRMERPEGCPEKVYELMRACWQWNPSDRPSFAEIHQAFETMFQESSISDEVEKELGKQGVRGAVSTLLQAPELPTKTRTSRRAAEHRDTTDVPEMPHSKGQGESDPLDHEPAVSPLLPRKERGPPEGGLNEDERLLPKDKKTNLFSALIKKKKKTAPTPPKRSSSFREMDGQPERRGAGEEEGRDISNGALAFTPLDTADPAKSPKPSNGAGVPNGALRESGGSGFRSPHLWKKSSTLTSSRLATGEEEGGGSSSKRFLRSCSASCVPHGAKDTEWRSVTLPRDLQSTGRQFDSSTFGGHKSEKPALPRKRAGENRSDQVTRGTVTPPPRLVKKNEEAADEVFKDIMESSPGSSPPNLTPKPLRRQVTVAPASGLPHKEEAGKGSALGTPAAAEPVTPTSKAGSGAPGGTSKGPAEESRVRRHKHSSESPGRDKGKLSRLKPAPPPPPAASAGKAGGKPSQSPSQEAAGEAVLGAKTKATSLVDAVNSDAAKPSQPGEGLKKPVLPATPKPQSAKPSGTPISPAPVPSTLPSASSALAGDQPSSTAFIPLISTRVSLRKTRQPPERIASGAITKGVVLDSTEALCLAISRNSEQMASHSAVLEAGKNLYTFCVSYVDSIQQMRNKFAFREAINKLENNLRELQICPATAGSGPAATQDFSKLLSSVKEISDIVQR

[9] = test system: HSP90AB1; parameters: method as in ChEMBL23 (accessed: 23/08/2018); details: average of reported values; ref ChEMBL23 (accessed: 23/08/2018); cited from earlier work
[10] = molecular target: T7, FYN (Homo sapiens, UniProt P06241); assay: HotSpot in vitro kinase radiometric assay; format: biochemical; details: read-out: % inhibition at 10 uM: FYN; 10 μM; Fig 6C median ± standard deviation (n = 2)
T7 construct: purchased Reaction Biology (HotSpot contract assay)

[11] = molecular target: DDR1 (Homo sapiens, UniProt Q08345); assay: HotSpot in vitro kinase radiometric assay; format: biochemical; parameters: purchased Reaction Biology (HotSpot contract assay)
Chain of DDR1 (Q08345 19-913): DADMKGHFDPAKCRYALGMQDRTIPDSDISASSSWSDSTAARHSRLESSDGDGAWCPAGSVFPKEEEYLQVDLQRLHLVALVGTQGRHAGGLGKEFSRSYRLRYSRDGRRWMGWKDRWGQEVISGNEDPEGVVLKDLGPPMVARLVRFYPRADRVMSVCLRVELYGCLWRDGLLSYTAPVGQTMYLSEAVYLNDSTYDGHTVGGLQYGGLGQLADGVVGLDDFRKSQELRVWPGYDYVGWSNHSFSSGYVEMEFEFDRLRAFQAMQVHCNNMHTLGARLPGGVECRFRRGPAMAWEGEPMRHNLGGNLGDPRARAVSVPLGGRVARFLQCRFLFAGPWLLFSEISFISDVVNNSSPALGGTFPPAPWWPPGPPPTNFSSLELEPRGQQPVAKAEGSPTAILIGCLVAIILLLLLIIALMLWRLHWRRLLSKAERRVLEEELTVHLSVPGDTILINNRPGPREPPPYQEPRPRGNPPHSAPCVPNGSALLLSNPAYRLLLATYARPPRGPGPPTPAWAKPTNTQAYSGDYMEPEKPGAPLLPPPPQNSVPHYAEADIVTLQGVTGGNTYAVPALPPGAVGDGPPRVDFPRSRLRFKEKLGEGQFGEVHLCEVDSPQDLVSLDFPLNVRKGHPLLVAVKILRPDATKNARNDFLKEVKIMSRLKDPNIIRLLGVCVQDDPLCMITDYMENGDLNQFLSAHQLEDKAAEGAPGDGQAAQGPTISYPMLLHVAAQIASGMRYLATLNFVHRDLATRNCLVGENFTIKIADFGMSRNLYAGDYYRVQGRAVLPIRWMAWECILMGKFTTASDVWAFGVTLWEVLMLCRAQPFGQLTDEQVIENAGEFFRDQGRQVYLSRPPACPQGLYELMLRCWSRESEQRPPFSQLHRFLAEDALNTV

[12] = molecular target: T8, PASK (Homo sapiens, UniProt Q96RG2); assay: HotSpot in vitro kinase radiometric assay; format: biochemical; details: read-out: % inhibition at 10 uM: PASK; 10 μM; Fig 6C median ± standard deviation (n = 2)
T8 construct: purchased Reaction Biology (HotSpot contract assay)
Outline: (§1)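 Radiometric filter-binding read-out of 32P/33P-labelled phosphoproduct captured on filter paper. Reactions contain kinase, substrate, cofactors and ɣ-labelled ATP plus test compound; no modified substrate or coupling enzyme used.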

[13] = molecular target: T9, TRKA (Homo sapiens, UniProt P04629); assay: HotSpot in vitro kinase radiometric assay; format: biochemical; details: read-out: % inhibition at 10 uM: TRKA; 10 μM; Fig 6C median ± standard deviation (n = 2)
T9 construct: purchased Reaction Biology (HotSpot contract assay)
Outline: as §1

[14] = molecular target: T10, ABL2/ARG (Homo sapiens, UniProt P42684); assay: HotSpot in vitro kinase radiometric assay; format: biochemical
T10 construct: purchased Reaction Biology (HotSpot contract assay)
T10 sequence (P42684 whole entry): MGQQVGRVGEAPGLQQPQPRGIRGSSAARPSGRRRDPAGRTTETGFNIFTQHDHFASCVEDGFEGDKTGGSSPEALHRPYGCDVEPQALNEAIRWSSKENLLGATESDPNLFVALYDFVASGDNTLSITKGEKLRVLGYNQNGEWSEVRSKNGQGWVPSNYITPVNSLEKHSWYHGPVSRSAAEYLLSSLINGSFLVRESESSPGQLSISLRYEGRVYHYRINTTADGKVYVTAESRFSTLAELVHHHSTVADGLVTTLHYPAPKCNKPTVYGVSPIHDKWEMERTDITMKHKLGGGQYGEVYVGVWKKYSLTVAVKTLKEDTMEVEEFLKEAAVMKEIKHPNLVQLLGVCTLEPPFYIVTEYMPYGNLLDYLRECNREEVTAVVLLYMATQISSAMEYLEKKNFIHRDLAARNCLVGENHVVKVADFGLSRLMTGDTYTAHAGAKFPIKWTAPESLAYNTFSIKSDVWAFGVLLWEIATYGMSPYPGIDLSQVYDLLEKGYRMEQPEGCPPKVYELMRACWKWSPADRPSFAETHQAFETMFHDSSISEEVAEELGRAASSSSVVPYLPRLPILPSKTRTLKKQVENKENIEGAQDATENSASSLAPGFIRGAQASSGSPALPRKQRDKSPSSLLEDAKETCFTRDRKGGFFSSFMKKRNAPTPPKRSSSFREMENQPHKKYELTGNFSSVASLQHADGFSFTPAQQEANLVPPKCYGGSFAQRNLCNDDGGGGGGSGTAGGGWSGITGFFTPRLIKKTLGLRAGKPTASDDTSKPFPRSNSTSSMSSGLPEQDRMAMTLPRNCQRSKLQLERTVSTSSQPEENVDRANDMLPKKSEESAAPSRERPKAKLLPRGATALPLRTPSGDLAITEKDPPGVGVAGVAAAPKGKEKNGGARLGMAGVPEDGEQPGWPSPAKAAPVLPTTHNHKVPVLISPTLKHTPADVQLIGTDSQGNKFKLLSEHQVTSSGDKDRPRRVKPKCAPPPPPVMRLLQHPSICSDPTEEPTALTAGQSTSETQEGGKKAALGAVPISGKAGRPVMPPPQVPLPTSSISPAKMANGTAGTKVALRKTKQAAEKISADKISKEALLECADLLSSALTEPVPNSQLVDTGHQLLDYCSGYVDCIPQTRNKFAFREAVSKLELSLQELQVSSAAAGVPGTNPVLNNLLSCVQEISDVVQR

[15] = molecular target: T11, LYN B (Homo sapiens, UniProt P07948); assay: HotSpot in vitro kinase radiometric assay; format: biochemical; details: read-out: % inhibition at 10 uM: LYN B; 10 μM; Fig 6C median ± standard deviation (n = 2)
T11 construct: purchased Reaction Biology (HotSpot contract assay)
Outline: as §1

[16] = molecular target: T12, c-Src (Homo sapiens, UniProt P12931); assay: HotSpot in vitro kinase radiometric assay; format: biochemical; details: read-out: % inhibition at 10 uM: SRC; 10 μM; Fig 6C median ± standard deviation (n = 2)
T12 construct: purchased Reaction Biology (HotSpot contract assay)
Outline: as §1

[17] = molecular target: T13, PDK4/PDKH4 (Homo sapiens, UniProt Q16654); assay: HotSpot in vitro kinase radiometric assay; format: biochemical; details: read-out: % inhibition at 10 uM: PDK4; 10 μM; Fig 6C median ± standard deviation (n = 2)
T13 construct: purchased Reaction Biology (HotSpot contract assay)
Outline: as §1

[18] = molecular target: T14, PDK2/PDHK2 (Homo sapiens, UniProt Q15119); assay: HotSpot in vitro kinase radiometric assay; format: biochemical; details: read-out: % inhibition at 10 uM: PDK2; 10 μM; Fig 6C median ± standard deviation (n = 2)
T14 construct: purchased Reaction Biology (HotSpot contract assay)
Outline: as §1

[19] = molecular target: T15, BLK (Homo sapiens, UniProt P51451); assay: HotSpot in vitro kinase radiometric assay; format: biochemical; details: read-out: % inhibition at 10 uM: BLK; 10 μM; Fig 6C median ± standard deviation (n = 2)
T15 construct: purchased Reaction Biology (HotSpot contract assay)
Outline: as §1

[20] = molecular target: T16, TRKA-TFG (TRK-T3) (Homo sapiens, UniProt P04629+Q92734); assay: HotSpot in vitro kinase radiometric assay; format: biochemical; details: radiometric 10-point concentration-response, n = 3; read-out: in vitro biochemical IC50, TRKA-TFG
T16 construct: purchased Reaction Biology (HotSpot contract assay)

[21] = read-out: % Enzyme Activity (relative to DMSO controls)
[22] = 10 μM, Fig 6C median ± standard deviation (n = 2)

## CCNC(=O)c1noc(-c2cc(C(C)C)c(O)cc2O)c1-c1ccc(CN2CCOCC2)cc1 [Luminespib]
[1]
  % Enzyme Activity (relative to DMSO controls): 112.00%
[1]; [21]
  remaining activity at 10 µM: 113%
[2]; 10 μM
  number of kinase off-targets inhibited by more than 50% at 10 μM: 14
  number of native kinases inhibited by more than 85% at 10 μM: two
[2]; ALK (T1151-L1152insT), [ATP] 20 µM, compound 10 uM
  % Enzyme Activity (relative to DMSO controls): 108.18% and 107.06%
[2]; ALK-TPM3, [ATP] 15 µM, compound 10 uM
  % Enzyme Activity (relative to DMSO controls): 105.28% and 105.22%
[2]; BRAF (T599_V600insT), 10 uM
  % Enzyme Activity (relative to DMSO controls): 98.93% and 97.05%
[2]; BRAF-FAM131B (Fex2Bex9), 10 uM
  % Enzyme Activity (relative to DMSO controls): 111.02% and 110.19%
[2]; EGFR (d746-750/C797S), 10 uM
  % Enzyme Activity (relative to DMSO controls): 93.95% and 93.48%
[2]; ERBB2 (V777_G778insCG), 10 uM
  % Enzyme Activity (relative to DMSO controls): 103.65% and 102.78%
[2]; FGFR1OP-FGFR1, [ATP] 10 µM, compound 10 uM
  % Enzyme Activity (relative to DMSO controls): 103.05% and 103.02%
[2]; FLT3 (ITD), [ATP] 30 µM, compound 10 uM
  % Enzyme Activity (relative to DMSO controls): 91.11% and 89.12%
[2]; Figure 3
  In vitro screening: kinases hit / kinases screened: 2/382
[2]; KSR1 (A635F), 10 uM
  % Enzyme Activity (relative to DMSO controls): 100.08% and 96.91%
[2]; LYN B, [ATP] 20 µM, compound 10 uM
  % Enzyme Activity (relative to DMSO controls): 26.10% and 25.22%
[2]; PKCb2, 10 uM
  % Enzyme Activity (relative to DMSO controls): 102.18% and 101.94%
[2]; ROS1-GOPC, [ATP] 15 µM, compound 10 uM
  % Enzyme Activity (relative to DMSO controls): 101.12% and 99.93%
[2]; TRKA-TFG (TRK-T3), [ATP] 20 µM, compound 10 uM
  % Enzyme Activity (relative to DMSO controls): 85.72% and 85.69%
[2]; TRKA-TPM3, [ATP] 50 µM, compound 10 uM
  % Enzyme Activity (relative to DMSO controls): 90.74% and 88.03%
[2]; TRKA-TPR, [ATP] 50 µM, compound 10 uM
  % Enzyme Activity (relative to DMSO controls): 90.04% and 89.94%
[2]; c-Kit (d557-558), [ATP] 10 µM, compound 10 uM
  % Enzyme Activity (relative to DMSO controls): 63.45% and 62.37%
[2]; cutoff of >85% inhibition at 10 μM, luminespib and ganetespib large kinome panel, others 16-kinase panel
  number of off-target kinases experimentally identified, In vitro binding (KinomeSCAN): 2
[3]; CDK2/Cyclin A1
  % Enzyme Activity (relative to DMSO controls): 96.40%
  remaining activity at 10 µM: 97.4%
[3]; CDK2/cyclin E
  % Enzyme Activity (relative to DMSO controls): 98.18%
  remaining activity at 10 µM: 101%
[4]
  % Enzyme Activity (relative to DMSO controls): 103.10%
[4]; [21]
  remaining activity at 10 µM: 105%
[5]
  % Enzyme Activity (relative to DMSO controls): 101.56%
[5]; [21]
  remaining activity at 10 µM: 102%
[6]
  inhibition at 10 µM: 66 ± 1%
[7]; 10 μM
  % inhibition at 10 uM: PEAK1: 70 ± 1%
[7]; read-out: % inhibition at 10 uM: PEAK1, 10 μM
  inhibition at 10 µM: > 70%
[8]; [22]
  % inhibition at 10 uM: ABL1: 93 ± 1%
[8]; ABL1, single replicate curves
  HILLSLOPE: -3.07 and -2.62 and -3.14
[8]; ABL1, single replicate curves, read-out: IC50
  IC50: 3.57 µM and 3.39 µM and 3.22 µM
[8]; radiometric 10-point concentration-response, n = 3, read-out: in vitro biochemical IC50, ABL1
  IC50: 3.39 µM
[8]; read-out: % inhibition at 10 uM: ABL1, 10 μM, Fig 6C median ± standard deviation (n = 2)
  inhibition at 10 µM: > 85%
[9]
  pActivity, HSP90AB1: 8.09
[10]
  inhibition at 10 µM: 35%
[11]; radiometric 10-point concentration-response, n = 3, read-out: in vitro biochemical IC50, DDR1
  IC50: > 10 µM
[11]; read-out: % inhibition at 10 uM: DDR1, 10 μM, Fig 6C median ± standard deviation (n = 2)
  inhibition at 10 µM: 15 ± 1%
[12]
  inhibition at 10 µM: 1%
[13]
  inhibition at 10 µM: -1%
[14]; [22]
  % inhibition at 10 uM: ABL2: 92 ± 0%
[14]; ABL2, single replicate curves
  HILLSLOPE: -2.11 and -2.06 and -1.92
[14]; ABL2, single replicate curves, read-out: IC50
  IC50: 4.57 µM and 4.33 µM and 4.12 µM
[14]; radiometric 10-point concentration-response, n = 3, read-out: in vitro biochemical IC50, ABL2
  IC50: 4.34 µM
[14]; read-out: % inhibition at 10 uM: ABL2, 10 μM, Fig 6C median ± standard deviation (n = 2)
  inhibition at 10 µM: > 85%
[15]
  inhibition at 10 µM: 74 ± 1%
[16]
  inhibition at 10 µM: 65 ± 2%
[17]
  inhibition at 10 µM: 71 ± 2%
[18]
  inhibition at 10 µM: 78 ± 1%
[19]
  inhibition at 10 µM: 62 ± 1%
[20]
  IC50: > 10 µM

Reference: publication PMC8550792, “Evolution of kinase polypharmacology across HSP90 drug discovery” (Cell Chemical Biology, 2021)
